Measured values reported in patent US20240059712A1, “BIFUNCTIONAL COMPOUNDS AND PHARMACEUTICAL USES THEREOF” (priority 2022, published 2024).

Assays:
[1] = target: T1, KRAS^G12D protein (Homo sapiens, UniProt P01116, G12D); test: Protein degradation study (western blot) in Aspc-1 cells; type: cell-based; details: for inhibition at 0.005 µM / inhibition at 0.05 µM / inhibition at 0.001 µM: ASPC1, 24 h, 24 hours, read-out: Rate of degradation; for inhibition at 0.005 µM: Aspc-1 cells treated with 0.005 μM compound; for inhibition at 0.05 µM: Aspc-1 cells treated with 50 nM compound; for DC50: Aspc-1 cells, half-maximum degradation concentration, read-out: DC50 of compounds induced Ras G12D protein degradation; for inhibition at 0.001 µM: Aspc-1 cells treated with 1 nM compound
T1 construct: host or cells: Aspc-1 (AsPC-1) cells
T1 sequence (P01116 1-188 isoform P01116-2 G12D): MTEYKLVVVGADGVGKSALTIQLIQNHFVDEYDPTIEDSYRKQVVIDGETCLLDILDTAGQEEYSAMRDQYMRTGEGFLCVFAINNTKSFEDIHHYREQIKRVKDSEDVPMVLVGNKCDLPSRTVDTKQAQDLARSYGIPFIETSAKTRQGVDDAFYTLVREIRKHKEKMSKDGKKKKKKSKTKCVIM
Procedure: Aspc-1 (Cobioer, CBP60546) cells in exponential growth phase were inoculated on a 6-well cell culture plate (Corning, 3516) at density of 1E6/well; and cells in the plate were cultured in 37° C. incubator containing 5%-carbon dioxide. The next day, testing compounds were dissolved in DMSO (Sigma, RNBF5902) for the preparation of a 10-mM concentration stock solution. The stock solution was diluted with complete medium (RPMI-1640 supplemented with 10% fetal bovine serum, 1% penicillin-streptomycin), yielding working solutions of various concentrations. The plate, after the addition of compounds, was placed in a 5% carbon dioxide incubator, and incubated at 37° C. for 24 hours (final DMSO concentration was 0.1%). The plate was then removed from the incubator, and the cells were washed twice with precooled PBS (Gibco, 14190250), followed by addition of 80-μL RIPA lysis buffer (containing protease inhibitor (Invitrogen™, AM2696)) to each well. The adherent cells were scraped off with a cell scraper, and the cell lysate was transferred to a 1.5-mL centrifuge tube followed with a 30-minute incubation on ice. The lysate was then clarified with centrifugation at 14000 rpm for 10 min at 4° C. The supernatant was transferred into a new 1.5-mL centrifuge tube, and protein concentration was measured with BCA protein detection kit (Thermo Fisher, 23225). G12D protein level was assessed by western blot.
A mixture of cell lysate (40 μL) and loading buffer (10 μL, 5×SDS (Beyotime, P0015L)) was denatured in a water-bath at 95° C. for 10 min. The denatured protein sample, at 30 μL/well, was loaded into corresponding well of 4-20% Bis-Tris gel (Kingsley, M00656). Protein samples were initially electrophoresed at 80 V for 30 minutes, followed by 120 V for 40 minutes, until the bromophenol blue strip ran to an appropriate position. After electrophoresis, iBlot2 (Life Technologies, IB21001) was used to transfer the separated samples onto PVDF film. The PVDF membrane was washed with double-distilled water and then blocked in TBST (Thermo Scientific, 28360) buffer containing 5% non-fat milk, for 2 hours. Blocked membrane was rinsed with tris-buffered saline tween-20 (Thermo Scientific, 28360, TBST) three times, 10 minutes each. Membrane was then incubated with 1:1000 diluted KRAS primary antibody (CST, cat #14429S) overnight at 4° C. Membrane was rinsed in a way described previously followed by 1 hour incubation of secondary antibody at room temperature. After washing the film for three times with TBST, ECL color developing solution was applied, and image was captured with Biorad Chemi Doc gel imager. The band gray value was quantified (Image Lab), and protein degradation level was calculated according to the following formula:
Level of RAS protein expression=(RAS-compound/GAPDH)/(RAS-DMSO/GAPDH)
Level of degradation (%)=(1−Rate of RAS protein expression)×100
Symbols of −, +, ++, +++ indicate that the degradation level of Ras protein induced by testing compounds are […], 11 to 30%, 31 to 60% and greater than 60%, respectively.
Half-maximum degradation concentrations (DC50s) of testing compounds were calculated using GraphPad Prism and their values were shown in Table 6. Symbols of […] represent DC50s equal or less than 10 nM, 11-50 nM, 51-100 nM, and 101-200 nM, respectively.

[2] = test system: Aspc-1 cells; test: Cell proliferation study (Cell Titer Glo, 72 hours); type: cell-based; details: Homo sapiens, ASPC1, read-out: IC50, inhibitory effect on cellular proliferation
Procedure: Aspc-1 (Cobioer, CBP60546) cells were grown in RPMI 1640 (Gibco, 61870127) supplemented with 10% fetal bovine serum (Gibco, 10099141), 1% penicillin-streptomycin (Gibco, 15070-063). Aspc-1 cells in exponential growth phase were seeded into 96-well plate (Corning, 3599) at density of 4×10^3/well. Cells were cultured overnight at 37° C. with 5% CO2. On the next day, cells were treated with compound at various concentrations for 72 hours in 37° C., 5% CO2 incubator (final DMSO concentration is 0.1%). After treatment, the cell plates were added 100 μL Cell Tier Glo (Promega, G7573) to every well and incubated at RT for 10 minutes. Cell growth status was measured with Cell Tier Glo (Promega, G7573) following manufacturer's directions. The inhibition curve was obtained with GraphPad 7.0 software using four-parameter equation.

| Compound | inhibition at 0.005 µM [1] [%] | inhibition at 0.05 µM [1] [%] | DC50 [1] [nM] | IC50 [2] [nM] | inhibition at 0.001 µM [1] [%] |
| --- | --- | --- | --- | --- | --- |
| C#Cc1c(F)ccc2cc(O)cc(-c3ncc4c(N5CC6CCC(C5)N6)nc(OCC5(CN6CCC7(CC6)CC(N6CCC(c8ccc9c(N%10CCC(=O)NC%10=O)nn(C)c9c8)CC6)C7)CC5)nc4c3F)c12 [Compound 1a] | > 60 | > 60 | < 10 | < 100 | – |
| C#Cc1c(F)ccc2cc(O)cc(-c3ncc4c(N5CC6CCC(C5)N6)nc(OCC5(CN6CCC7(CC6)CC(N6CCC(c8cc9c(cc8F)c(N8CCC(=O)NC8=O)nn9C)CC6)C7)CC5)nc4c3F)c12 [Compound 2a] | > 60 | > 60 | < 10 | < 100 | – |
| C#Cc1c(F)ccc2cc(O)cc(-c3ncc4c(N5CC6CCC(C5)N6)nc(OCC5(CN6CCC7(CC6)CC(N6CCC(c8ccc(NC9CCC(=O)NC9=O)cc8F)CC6)C7)CC5)nc4c3F)c12 (stereo not drawn) [Compound 12a] | > 60 | > 60 | < 10 | < 100 | > 60 |
| Nc1cc(Cl)c(C(F)(F)F)c(-c2ncc3c(N4CC5CCC(C4)N5)nc(OCC4(CN5CCC6(CC5)CC(N5CCC(c7ccc8c9c(cccc79)C(=O)N8C7CCC(=O)NC7=O)CC5)C6)CC4)nc3c2F)c1 (stereo not drawn) [Compound 13a] | > 60 | > 60 | < 10 | < 100 | > 60 |
| C#Cc1c(F)ccc2cccc(-c3ncc4c(N5CC6CCC(C5)N6)nc(OCC5(CN6CCC7(CC6)CC(N6CCC(c8ccc9c%10c(cccc8%10)C(=O)N9C8CCC(=O)NC8=O)CC6)C7)CC5)nc4c3F)c12 (stereo not drawn) [Compound 14a] | > 60 | > 60 | < 10 | 101 to 1000 | > 60 |
| C#Cc1c(F)ccc2cccc(-c3ncc4c(N5CC6CCC(C5)N6)nc(OCC5(CN6CCC7(CC6)CC(N6CCC(c8ccc9c(C%10CCC(=O)NC%10=O)nn(C)c9c8)CC6)C7)CC5)nc4c3F)c12 (stereo not drawn) [Compound 16a] | > 60 | > 60 | – | 101 to 1000 | – |
| Cn1nc(C2CCC(=O)NC2=O)c2ccc(C3CCN(C4CC5(CCN(CC6(COc7nc(N8CC9CCC(C8)N9)c8cnc(-c9cc(N)cc(Cl)c9C(F)(F)F)c(F)c8n7)CC6)CC5)C4)CC3)cc21 (stereo not drawn) [Compound 17a] | > 60 | > 60 | < 10 | < 100 | – |
| Nc1cc(Cl)c(C(F)(F)F)c(-c2ncc3c(N4CC5CCC(C4)N5)nc(OCC4(CN5CCC6(CC5)CC(N5CCC(c7ccc(NC8CCC(=O)NC8=O)cc7F)CC5)C6)CC4)nc3c2F)c1 (stereo not drawn) [Compound 21a] | 31 to 60 | > 60 | < 10 | < 100 | – |
| C#Cc1c(F)ccc2cc(O)cc(-c3ccc4c(N5CC6CCC(C5)N6)nc(OCC5(CN6CCC7(CC6)CC(N6CCC(c8ccc9c(C%10CCC(=O)NC%10=O)nn(C)c9c8)CC6)C7)CC5)nc4c3F)c12 (stereo not drawn) [Compound 23a] | > 60 | > 60 | < 10 | < 100 | – |
| C#Cc1c(F)ccc2cc(O)cc(-c3ncc4c(N5CC6CCC(C5)N6)nc(OCC5(CN6CCC7(CCC(C(=O)N8CCC(c9ccc%10c(C%11CCC(=O)NC%11=O)nn(C)c%10c9)CC8)CC7)CC6)CC5)nc4c3F)c12 (stereo not drawn) [Compound 24a] | > 60 | 31 to 60 | < 10 | < 100 | – |
| C#Cc1c(F)ccc2cc(O)cc(-c3ncc4c(N5CC6CCC(C5)N6)nc(OCC5(CN6CCC7(CCC(CN8CCC(c9ccc%10c(C%11CCC(=O)NC%11=O)nn(C)c%10c9)CC8)CC7)CC6)CC5)nc4c3F)c12 (stereo not drawn) [Compound 26a] | > 60 | 11 to 30 | < 10 | < 100 | – |
| C#Cc1c(F)ccc2cc(O)cc(-c3ncc4c(N5CC6CCC(C5)N6)nc(OCC5(CN6CCC7(CC6)CC(C(=O)N6CCC(c8ccc9c(C%10CCC(=O)NC%10=O)nn(C)c9c8)CC6)C7)CC5)nc4c3F)c12 (stereo not drawn) [Compound 28a] | > 60 | > 60 | < 10 | < 100 | – |
| C#Cc1c(F)ccc2cc(O)cc(-c3ncc4c(N5CC6CCC(C5)N6)nc(OCC5(CN6CCC7(CC6)CC(CN6CCC(c8ccc9c(C%10CCC(=O)NC%10=O)nn(C)c9c8)CC6)C7)CC5)nc4c3F)c12 (stereo not drawn) [Compound 29a] | > 60 | 11 to 30 | < 10 | < 100 | – |
| C#Cc1c(F)ccc2cc(O)cc(-c3ncc4c(N5CC6CCC(C5)N6)nc(OCC5(CN6CCC(N7CC(CN8CCC(c9ccc%10c(C%11CCC(=O)NC%11=O)nn(C)c%10c9)CC8)C7)CC6)CC5)nc4c3F)c12 (stereo not drawn) [Compound 30a] | > 60 | > 60 | < 10 | < 100 | – |
| C#Cc1c(F)ccc2cc(O)cc(-c3ncc4c(N5CC6CCC(C5)N6)nc(OCC5(CN6CC7(CCC(N8CCC(c9ccc%10c(C%11CCC(=O)NC%11=O)nn(C)c%10c9)CC8)CC7)C6)CC5)nc4c3F)c12 (stereo not drawn) [Compound 31a] | > 60 | > 60 | < 10 | < 100 | – |
| C#Cc1c(F)ccc2cc(O)cc(-c3ncc4c(N5CC6CCC(C5)N6)nc(OCC5(CN6CC7(CCC(CN8CCC(c9ccc%10c(C%11CCC(=O)NC%11=O)nn(C)c%10c9)CC8)CC7)C6)CC5)nc4c3F)c12 (stereo not drawn) [Compound 32a] | > 60 | 31 to 60 | < 10 | < 100 | – |
| C#Cc1c(F)ccc2cc(O)cc(-c3ncc4c(N5CC6CCC(C5)N6)nc(OCC5(CN6CCC7(CCC(N8CCC(c9ccc%10c(C%11CCC(=O)NC%11=O)nn(C)c%10c9)CC8)CC7)CC6)CC5)nc4c3F)c12 (stereo not drawn) [Compound 33a] | > 60 | > 60 | < 10 | < 100 | – |
| C#Cc1c(F)ccc2cc(O)cc(-c3ncc4c(N5CC6CCC(C5)N6)nc(OCC5(CN6CCC7(CC6)CC(N6CCC(c8cc9c(cc8F)c(N8CCC(=O)NC8=O)nn9C)C(F)(F)C6)C7)CC5)nc4c3F)c12 (stereo not drawn) [Compound 37a] | – | – | < 10 | < 100 | – |
| Cn1nc(N2CCC(=O)NC2=O)c2cc(F)c(C3CCN(C4CC5(CCN(CC6(COc7nc(N8CC9CCC(C8)N9)c8cc(Cl)c(-c9ccc(F)c%10sc(N)c(C#N)c9%10)c(F)c8n7)CC6)CC5)C4)CC3)cc21 [Compound 40a] | > 60 | – | < 10 | < 100 | – |
